From PMC5458078, “Global mapping of CARM1 substrates defines enzyme specificity and substrate recognition” (Nature Communications, 2017)
Like-named read-outs stand apart in the source and are kept apart here.

Key:
[1] = test system: MCF7 CARM1 KO cells; test: Quantitative MS of ADMA-containing peptides in MCF7 CARM1 KO cells expressing CARM1 28-608 or CARM1 140-608, and in CARM1 KO; assay type: cell-based, human
[2] = test system: MCF7 cells; test: Quantitative nanoLC-MS/MS (TMT) of ADMA-containing peptides, CARM1 KO vs parental; assay type: cell-based, human; design: Fold change KO/WT: scale not given here
[3] = CARM1 140-608 versus WT, difference of mean log2 values
[4] = CARM1 KO versus WT, difference of mean log2 values
[5] = CARM1 KO vs wild type MCF7 cells, 3 biological replicates each
[6] = ratio on log2 scale, mean of 3 replicates
[7] = MCF7, CARM1 knockout vs wild type, n = 3 each
[8] = mean, CARM1 140-608 versus WT (log2 scale)
[9] = mean, CARM1 KO versus WT (log2 scale)
[10] = MCF7 CARM1 knockout vs wild type, 3 biological replicates each, values are on log2 scale
[11] = CARM1 140-608 versus WT, mean of three replicates (log2)
[12] = KO versus WT, mean of three replicates (log2)
[13] = ADMA-containing peptide, CARM1 knockout (KO) vs wild type (WT) MCF7 cells, 6-plex TMT experiment #1, three biological replicates each, sheet "MCF7"
[14] = ADMA-containing peptide, MCF7, CARM1 knockout (KO1-3) vs wild type (WT1-3), TMT 6-plex experiment #1
[15] = CARM1 140-608 vs WT, mean of 3 replicates, log2
[16] = KO vs WT, mean of 3 replicates, log2
[17] = MCF7, CARM1 KO vs WT, three biological replicates each
[18] = difference of log2 means, CARM1 140-608 vs WT
[19] = difference of log2 means, KO vs WT
[20] = log2 scale ratio, mean of n = 3
[21] = CARM1 140-608 vs WT, mean of 3 replicates (log2 scale)
[22] = KO vs WT, mean of 3 replicates (log2 scale)
[23] = MCF7, CARM1 KO (KO1-KO3) vs wild type (WT1-WT3)

Q: For GrGALLQDICK, which “CARM1 140-608/WT” value [1, 3] is on record?
A: 0.1138

Q: What about the KO/WT [1, 4] of the same substance?
A: -0.96

Q: What about the “Fold change KO/WT” value [2, 5] of the same substance?
A: 0.3016

Q: What does the source list for “SPLLNQPVPELSHASLIANQSPFrAPLNVTNTAGTSLPSVDLLQK”?
A: CARM1 140-608/WT [1, 6]: -2.179; KO/WT [1, 6]: -2.328; Fold change KO/WT [2, 7]: -2.328

Q: With GFYPQYGALETrGGFNPR as the substance, how does the “CARM1 140-608/WT” value [1, 8] read?
A: -0.6578

Q: What about the KO/WT [1, 9] of the same substance?
A: -0.432

Q: What about the “Fold change KO/WT” value [2, 10] of the same substance?
A: -0.3326

Q: How did the “CARM1 140-608/WT” value [1, 11] turn out when GrGSLLLR was run?
A: 0.6421

Q: What about the KO/WT [1, 12] of the same substance?
A: 1.1394

Q: And the “Fold change KO/WT” value [2, 13]?
A: 1.1394

Q: With “LINFQNHSPKPNGPVLPPHPQQLrYPPNQNIPrQAIKPNPLQMAFLAQQAIK” as the substance, how does the “CARM1 140-608/WT” value [1, 3] read?
A: 0.7941

Q: What about the KO/WT [1, 4] of the same substance?
A: -2.136

Q: And the “Fold change KO/WT” value [2, 14]?
A: -2.471

Q: Which results are given for VPrFSSLSSCNPPAMATSAEK?
A: CARM1 140-608/WT [1, 8]: -1.357; KO/WT [1, 9]: -1.804; Fold change KO/WT [2, 7]: -1.804

Q: LPGTPPLFSPPPrHHLDPHR was tested. Which “CARM1 140-608/WT” value [1, 15] did it give?
A: -1.232

Q: And the KO/WT [1, 16]?
A: -1.196

Q: And the “Fold change KO/WT” value [2, 17]?
A: -1.221

Q: With TSGELGPFNNGASYPLQAGQPrLTK as the substance, how does the “CARM1 140-608/WT” value [1, 18] read?
A: -2.866

Q: What about the KO/WT [1, 19] of the same substance?
A: -4.63

Q: And the “Fold change KO/WT” value [2, 13]?
A: -4.512

Q: With “TPTATTSGIrATLTPTVLAPrLPQPPQNPTNIQNFQLPPGMVLVR” as the substance, how does the “CARM1 140-608/WT” value [1, 20] read?
A: 0.4964

Q: And the KO/WT [1, 20]?
A: -3.04

Q: And the “Fold change KO/WT” value [2, 14]?
A: -3.04

Q: Which “CARM1 140-608/WT” value [1, 21] does the source give for SPGVFRPEQDPVPrMPFEK here?
A: -0.5664

Q: And the KO/WT [1, 22]?
A: -2.083

Q: And the “Fold change KO/WT” value [2, 23]?
A: -2.083

Q: AGSQGGrGGGAQAAAR was tested. Which “CARM1 140-608/WT” value [1, 15] did it give?
A: 0.1432

Q: What about the KO/WT [1, 16] of the same substance?
A: 0.7684

Q: And the “Fold change KO/WT” value [2, 17]?
A: 0.4231

Q: For MPTMPMLDIrPGLIPQAPGPrFPLIQPGIPPQR, which “CARM1 140-608/WT” value [1, 21] is on record?
A: 0.8902

Q: And the KO/WT [1, 22]?
A: -2.649

Q: And the “Fold change KO/WT” value [2, 23]?
A: -2.649

Q: For AGGAASGGGGNSWDLPGSHVrLPGR, which “CARM1 140-608/WT” value [1, 21] is on record?
A: -0.7799

Q: And the KO/WT [1, 22]?
A: -0.9676

Q: What about the “Fold change KO/WT” value [2, 23] of the same substance?
A: -0.8314

Q: Which “CARM1 140-608/WT” value [1, 8] does the source give for KPLGTAPHCPrLPLRK here?
A: -2.5902

Q: What about the KO/WT [1, 9] of the same substance?
A: -4.08

Q: What about the “Fold change KO/WT” value [2, 7] of the same substance?
A: -4.08

Q: “VLGIIPSSTGTSQQTFTSFQPrTATVTIrPNTSGSGGTTSNSQVITGPQIrPGMTVIrTPLQQSTLGK” was tested. Which “CARM1 140-608/WT” value [1, 15] did it give?
A: -2.572

Q: And the KO/WT [1, 16]?
A: -6.437

Q: What about the “Fold change KO/WT” value [2, 17] of the same substance?
A: -6.437

Q: What does the source list for SLIPPIPVSPPILAPrLSSGALK?
A: CARM1 140-608/WT [1, 21]: -0.7213; KO/WT [1, 22]: -2.509; Fold change KO/WT [2, 23]: -3.075

Q: Which “CARM1 140-608/WT” value [1, 3] does the source give for TPGQINLAQLrLQHMQQQVYAQK here?
A: -3.552

Q: What about the KO/WT [1, 4] of the same substance?
A: -5.003

Q: What about the “Fold change KO/WT” value [2, 14] of the same substance?
A: -4.121

Q: IPGIPrHSGPQYSMMQPHLQR was tested. Which “CARM1 140-608/WT” value [1, 3] did it give?
A: 1.323

Q: What about the KO/WT [1, 4] of the same substance?
A: -0.1608

Q: What about the “Fold change KO/WT” value [2, 5] of the same substance?
A: -0.5283

Q: STArFTLNPNPTGVQNPHIER was tested. Which “CARM1 140-608/WT” value [1, 18] did it give?
A: -1.926

Q: And the KO/WT [1, 19]?
A: -2.347

Q: What about the “Fold change KO/WT” value [2, 13] of the same substance?
A: -1.9764

Q: With IPYPAGTLPNPLLPHPLHENEVLrHQLFAAPYR as the substance, how does the “CARM1 140-608/WT” value [1, 15] read?
A: -0.5059

Q: What about the KO/WT [1, 16] of the same substance?
A: -1.312

Q: And the “Fold change KO/WT” value [2, 17]?
A: -1.146

Q: With GQLFrLPSALNR as the substance, how does the “CARM1 140-608/WT” value [1, 6] read?
A: -1.812

Q: What about the KO/WT [1, 6] of the same substance?
A: -4.117

Q: What about the “Fold change KO/WT” value [2, 7] of the same substance?
A: -4.127

Q: For CDPVPAANGAIrFHCDPTFWAK, which “CARM1 140-608/WT” value [1, 3] is on record?
A: -1.543

Q: And the KO/WT [1, 4]?
A: -1.494

Q: What about the “Fold change KO/WT” value [2, 5] of the same substance?
A: -1.494

Q: What does the source list for LRGPGGPrGGLGGGMR?
A: CARM1 140-608/WT [1, 8]: 0.5472; KO/WT [1, 9]: 1.035; Fold change KO/WT [2, 7]: -0.02725

Q: How did the “CARM1 140-608/WT” value [1, 8] turn out when HSAYSYCGrGFYPQYGALETrGGFNPR was run?
A: -0.5986

Q: What about the KO/WT [1, 9] of the same substance?
A: -0.0486

Q: And the “Fold change KO/WT” value [2, 10]?
A: -0.3157

Q: Which “CARM1 140-608/WT” value [1, 18] does the source give for TSVYrQQQPAVPQGQrLrQQLQAK here?
A: -3.863

Q: What about the KO/WT [1, 19] of the same substance?
A: -4.228

Q: What about the “Fold change KO/WT” value [2, 13] of the same substance?
A: -4.048

Q: LAQDPYrLGHDPYR was tested. Which “CARM1 140-608/WT” value [1] did it give?
A: -0.7785

Q: What about the KO/WT [1] of the same substance?
A: -0.6293

Q: What about the “Fold change KO/WT” value [2, 14] of the same substance?
A: -0.6293

Q: How did the “CARM1 140-608/WT” value [1, 11] turn out when QPQPAQNVLAAPrLR was run?
A: -0.6318

Q: What about the KO/WT [1, 12] of the same substance?
A: -1.672

Q: And the “Fold change KO/WT” value [2, 13]?
A: -1.672

Q: What does the source list for VGVPTAVQNLAPrAAVAAAAPrAVAPYK?
A: CARM1 140-608/WT [1, 11]: 0.2214; KO/WT [1, 12]: -3.003; Fold change KO/WT [2, 13]: -3.907

Q: What does the source list for SGSGNFGGGrGGGFGGNDNFGrGGNFSGrGGFGGSR?
A: CARM1 140-608/WT [1, 8]: 0.1031; KO/WT [1, 9]: 0.7867; Fold change KO/WT [2, 7]: 0.2137

Q: What does the source list for “SHLSTAGGLAVPSLPTAGPYYSPYALYGQrLASASALGYQ”?
A: CARM1 140-608/WT [1, 3]: -2.31; KO/WT [1, 4]: -2.998; Fold change KO/WT [2, 5]: -2.553

Q: How did the “CARM1 140-608/WT” value [1, 6] turn out when LHrSPLTFPAWVrPPEAAR was run?
A: -1.436

Q: What about the KO/WT [1, 6] of the same substance?
A: -1.489

Q: And the “Fold change KO/WT” value [2, 7]?
A: -1.489

Q: Which results are given for VrPVLNLPGPGPALPR?
A: CARM1 140-608/WT [1, 11]: -1.7334; KO/WT [1, 12]: -4.296; Fold change KO/WT [2, 13]: -2.268

Q: With ErYLGGIK as the substance, how does the “CARM1 140-608/WT” value [1, 6] read?
A: 0.1385

Q: What about the KO/WT [1, 6] of the same substance?
A: 0.4212

Q: And the “Fold change KO/WT” value [2, 7]?
A: 0.4212
